# Assay results: patent US5231101A, “Benzo[5,6]cyclohepta[1,2-B]pyridine derivatives and antiallergic agents comprising same” (SS Pharmaceutical Co., Ltd., priority 1991, dated 1993)
# Tests used:
# [1] = system: isolated guinea pig ileum; assay: Antihistaminergic action on the isolated guinea pig ileum (histamine-induced contraction); assay type: cell-based, guinea pig (Hartley male); settings: Cavia porcellus
# Protocol: (1) Antihistaminergic action on the isolated guinea pig ileum
# (§1) After a Hartley male guinea pig was sacrificed under ether anesthesia and exsanguination, the ileum was immediately isolated and a preparation was prepared. The preparation was suspended in a 20 ml Magnus bath containing 32° C. Tyrode solution (95% O2 -5% CO2 saturation) and was placed under resting tension of 1 g. The isometrical changes of the muscular tension produced were recorded on the polygraph through the force displacement transducer.
# [2] = system: isolated guinea pig ileum; assay: Antihistamine selectivity determined from experiments (1) and (2); assay type: cell-based; settings: determined from results of experiments (1) antihistaminergic and (2) antiacetylcholinergic action
# Protocol: as §1
# (3) Antihistamine selectivity
# From the results of the above experiments (1) and (2), the antihistamine selectivity was determined in accordance with the following formula. [formula]
# [3] = system: histamine-induced dermovascular penetration increase; assay: Effect on histamine-induced dermovascular penetration increase; assay type: in vivo, guinea pig (5-week old); settings: Cavia porcellus, 0.5 h; oral, 60 minutes before intradermal histamine (1 μg); blue spot area at 30 min; guinea pig; read-out: ID50 (the source's name)
# Protocol: (4) Effect on histamine-induced dermovascular penetration increase In a shaved dorsal skin of a guinea pig (5-week old), 0.1 ml (1 μg) of histamine was intradermally injected. […] Thirty minutes later, the animal was sacrificed under exsanguination and was evaluated by square of the shortest and the longest diameters of the blue spot (histamine-injected site). Each test compound was orally administered 60 minutes before the injection of histamine.
# [4] = system: isolated guinea pig ileum; assay: Antiacetylcholinergic action on the isolated guinea pig ileum (acetylcholine-induced contraction); assay type: cell-based, guinea pig (Hartley male); settings: Cavia porcellus
# Protocol: as §1
# (2) Antiacetylcholinergic action on the isolated guinea pig ileum
# ddy male mice = assay: Effects on sleeping time (pentobarbital-induced); assay type: in vivo, mouse (ddy male); settings: 10 mg/kg oral, 1 hour before pentobarbital (50 mg/kg i.p.), n=10, control 46.6 ± 3.8, ** p < 0.01 relative to the control (marked for loratadine only)
# Protocol: (5) Effects on sleeping time Animals used in groups were ddy male mice, each group consisting of ten mice. After fasted for 24 hours, they were orally administered with a test compound. Upon an elapsed time of 1 hour after the oral administration, pentobarbital (50 mg/kg) was intraperitoneally administered and the sleeping time was measured. Statistical evaluation was performed by one-way analysis of variance, followed by the Turkey test for multiple comparison.
# Acute toxicity = settings: mouse, in vivo; oral, ICR mice
# Excerpt: The invention compound (Compound No. 1) was orally administered to ICR mice.
Structure (SMILES),IC50 [1] [µM],Antihistamic selectivity [2],ED50 [3] [mg/kg],IC50 [4] [µM],Sleeping time (ddy male mice) [min],"IC50 ([1]; vs histamine (10^-5 M)-induced contraction, isolated guinea pig ileum, 32° C. Tyrode solution, read-out: IC50) [µM]","IC50 ([4]; vs acetylcholine (3×10^-5 M), isolated guinea pig ileum, read-out: IC50) [µM]",LD50 (Acute toxicity) [mg/kg]
CCOC(=O)N1CCC(=C2c3ccc(Cl)cc3CCc3cccnc32)CC1 [Loratadine],0.123,190,0.534,23.4,75.7 ± 5.8,–,–,–
"CN1CCC(=C2c3ccc(C#N)cc3CCc3cccnc32)CC1 [Compound No. 1, 8-Cyano-11-(1-methyl-4-piperidylidene)-6,11-dihydro-5H-benzo[5,6]-cyclohepta[1,2-b]pyridine]",–,3212,0.012,–,62.9 ± 5.8,0.0151,48.5,657
CC(C)(C)c1ccc(C(O)CCCN2CCC(C(O)(c3ccccc3)c3ccccc3)CC2)cc1 (stereo not drawn) [Terfenadine],–,–,3.34,–,–,–,–,–
